Results on four compounds are retold here after patent publication US11696956B2, “Bicyclic peptide ligands specific for EphA2” (BicycleTx Limited, priority 2017, dated 2023).

For one series, the system named is PC-3 xenograft. The series is described as follows: Study 8: in vivo efficacy, PC-3 xenograft. The note with it: qw.
The target in a further series is T1, Mouse EphA2 (Mus musculus, UniProt Q03145).
T1 construct: EphA2 (Ecto); Mouse; C-; Sino; 50586-M08H; polyHis (C); purchased Sino Biological 50586-M08H
T1 sequence (Q03145 26-538 limits assumed): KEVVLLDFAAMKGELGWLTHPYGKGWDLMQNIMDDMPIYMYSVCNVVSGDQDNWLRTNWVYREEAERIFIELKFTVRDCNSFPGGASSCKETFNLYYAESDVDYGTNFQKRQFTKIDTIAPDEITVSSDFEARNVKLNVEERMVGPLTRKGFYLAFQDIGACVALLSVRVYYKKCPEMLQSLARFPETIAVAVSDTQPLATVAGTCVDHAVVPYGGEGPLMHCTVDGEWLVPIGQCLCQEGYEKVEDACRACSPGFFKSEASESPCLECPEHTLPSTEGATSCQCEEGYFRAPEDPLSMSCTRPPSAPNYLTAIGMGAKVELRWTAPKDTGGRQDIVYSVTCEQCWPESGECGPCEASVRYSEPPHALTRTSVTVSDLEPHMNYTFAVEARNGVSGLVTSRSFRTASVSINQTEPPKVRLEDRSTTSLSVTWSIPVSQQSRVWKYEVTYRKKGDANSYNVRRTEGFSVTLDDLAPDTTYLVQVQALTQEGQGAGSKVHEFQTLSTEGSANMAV
As to the kind of experiment: FP competition binding (Study 2, alternative protocol). Conditions: summary of Table 10.

The target in a further series is T2, rat EphA2 (Rattus norvegicus, UniProt D3ZBN3).
T2 construct: Rat; C-; In-house; N/A; polyHis (C); made in house
T2 sequence (D3ZBN3 26-205): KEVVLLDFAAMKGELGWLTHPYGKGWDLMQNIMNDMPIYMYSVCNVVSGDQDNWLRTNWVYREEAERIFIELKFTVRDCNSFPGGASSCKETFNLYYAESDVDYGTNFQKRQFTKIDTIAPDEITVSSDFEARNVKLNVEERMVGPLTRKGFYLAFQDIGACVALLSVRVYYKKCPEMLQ
Described as above. Conditions: summary of Table 10.

The target in another series is T3, Human EphA2 (Homo sapiens, UniProt P29317).
T3 construct: EphA2 (Ecto); Human; C-terminal; R&D systems; 3035-A2; polyHis (C); purchased R&D systems 3035-A2
T3 sequence (P29317 24-537 limits assumed): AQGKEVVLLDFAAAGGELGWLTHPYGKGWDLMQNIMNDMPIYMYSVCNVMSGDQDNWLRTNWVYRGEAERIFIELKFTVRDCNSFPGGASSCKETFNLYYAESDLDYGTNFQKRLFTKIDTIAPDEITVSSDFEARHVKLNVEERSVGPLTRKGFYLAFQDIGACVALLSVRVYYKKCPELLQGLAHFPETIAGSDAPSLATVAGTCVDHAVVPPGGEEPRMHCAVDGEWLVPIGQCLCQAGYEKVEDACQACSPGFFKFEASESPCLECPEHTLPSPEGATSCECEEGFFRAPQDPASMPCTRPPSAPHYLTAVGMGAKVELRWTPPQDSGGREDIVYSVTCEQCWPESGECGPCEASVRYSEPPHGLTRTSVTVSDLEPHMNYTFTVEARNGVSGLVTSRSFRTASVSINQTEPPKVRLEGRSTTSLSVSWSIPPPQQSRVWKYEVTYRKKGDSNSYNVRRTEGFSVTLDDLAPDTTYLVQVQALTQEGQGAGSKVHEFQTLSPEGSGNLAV
The series is described as above. Conditions: summary of Table 10.

Protocol for PC-3 xenograft: The major endpoint was to see if the tumor growth could be delayed or mice could be cured. Tumor volume was measured three times weekly in two dimensions using a caliper, and the volume was expressed in mm^3 using the formula: V=0.5 a×b^2 where a and b are the long and short diameters of the tumor, respectively. The tumor size was then used for calculations of T/C value. The T/C value (in percent) is an indication of antitumor effectiveness; T and C are the mean volumes of the treated and control groups, respectively, on a given day. TGI was calculated for each group using the formula: TGI (%)=[1−(Ti−T0)/(Vi−V0)]×100; Ti is the average tumor volume of a treatment group on a given day, T0 is the average tumor volume of the treatment group on the day of treatment start, Vi is the average tumor volume of the vehicle control group on the same day with Ti, and V0 is the average tumor volume of the vehicle group on the day of treatment start.
A one-way ANOVA was performed to compare tumor volume among groups, and when a significant F-statistics (a ratio of treatment variance to the error variance) was obtained, comparisons between groups were carried out with Games-Howell test. […] P<0.05 was considered to be statistically significant.
The tumor cells were maintained in F-12K medium supplemented with 10% heat inactivated fetal bovine serum at 37° C. in an atmosphere of 5% CO2 in air. The tumor cells were routinely subcultured twice weekly. The cells growing in an exponential growth phase were harvested and counted for tumor inoculation.
52 animals were randomized when the average tumor volume reached 454 mm^3.
Tumor growth inhibition rate for test articles in the PC-3 xenograft model was calculated based on tumor volume measurements at day 20 after the start of the treatment.

In general, T/C refers to the ratio of treated to control. Turning to `CC(=O)O[C@@]12CO[C@@H]1C[C@H](O)[C@@]1(C)C(=O)[C@H](O)C3=C(C)[C@@H](OC(=O)[C@H](O)[C@@H](NC(=O)OC(C)(C)C)c4ccccc4)C[C@@](O)([C@@H](OC(=O)c4ccccc4)[C@H]21)C3(C)C` [Docetaxel], in the series with PC-3 xenograft (15 mg/kg), the “animal body weight loss” value is “severe animal body weight loss”. Moreover, the TGI in the series on PC-3 xenograft (15 mg/kg, day 20) was 101.8%; with PC-3 xenograft (15 mpk, day 20) it was 101.8%. Also, the “TV (tumor volume)” value with PC-3 xenograft (15 mg/kg, day 20) worked out at 419 mm^3. The Mean tumor volume with PC-3 xenograft (15 mpk, day 0) came to 453 ± 62 mm^3; in the series with PC-3 xenograft (15 mpk, day 2), 584 ± 72 mm^3; in the series with PC-3 xenograft (15 mpk, day 4), 632 ± 56 mm^3; in the series on PC-3 xenograft (15 mpk, day 6) it was 636 ± 48 mm^3; in the series with PC-3 xenograft (15 mpk, day 8) it was 568 ± 50 mm^3; in the series on PC-3 xenograft (15 mpk, day 10), 408 ± 31 mm^3. Further, the Mean tumor volume amounted to 374 ± 26 mm^3 with PC-3 xenograft (15 mpk, day 13); 388 ± 36 mm^3 in the series on PC-3 xenograft (15 mpk, day 15); 361 ± 25 mm^3 in the series with PC-3 xenograft (15 mpk, day 17); 419 ± 31 mm^3 in the series on PC-3 xenograft (15 mpk, day 20). In addition, the T/C in the series on PC-3 xenograft (15 mpk, day 20) is recorded as 17.7%. For the same compound, in the series on PC-3 xenograft (15 mpk, day 20, Mean ± SEM), the “Tumor Volume” value stood at 419 ± 31 mm^3.

Take “(β-Ala)-Sar10-A(HArg)DC(HyP)LVNPLCLHP(D-Asp)W(HArg)C [Compound 66]”: the “binding to mouse EphA2” value at Mouse EphA2 is on record as “bind with high affinity”. Further, the “binding to rat EphA2” value at rat EphA2 is “bind with high affinity”.

As to “(β-Ala)-Sar10-A(HArg)DCPLVNPLCLHPGVVTC [Compound 67]”, the “binding to mouse EphA2” value at Mouse EphA2 is on record as “bind with high affinity”. Besides, the “binding to rat EphA2” value on rat EphA2 was “bind with high affinity”.

Turning to “Ac-CPLVNPLCLHPGVVTCLHG-Sar6-(D-K) [Compound 77]”, the “binding to human EphA2” value on Human EphA2 is listed as “binds”. On Mouse EphA2, the “binding to mouse EphA2” value is reported as “binds”.
